Experimental data taken from patent US20150031760A1, “PHARMACEUTICAL COMPOSITION FOR PREVENTING OR TREATING NERVOUS SYSTEM DISORDERS COMPRISING SULFURETIN OR PHARMACEUTICALLY ACCEPTABLE SALT THEREOF” (Research and Business Foundation SUNGKYUNKWAN UNIVERSITY, priority 2010, published 2015).
No end group written: not given here.

What was measured:
[1] = MTT (cell viability) test, induced cell death in SH-SY5Y cells; conditions: human
Description: (§1) The incubator was maintained at a temperature of 37° C., and a mixed gas of 95% air and 5% CO2 was continuously supplied thereto to provide suitable conditions for cell culture. The cells were cultured in a 6-well plate or a 96-well plate at each of densities of 1×10^6 and 2×10^4 cells/well 24 hours before the experiment. […] Sulfuretin was used in ethanol and used at a final concentration of 0.1% or less.
To measure cell viability, an MTT reduction assay was used. An MTT solution was added to each well of the 96-well plate (in which the cells have been cultured) to a final concentration of 0.5 mg/ml. The plate was incubated in an incubator for 2 hours, and the medium and the MIT solution were removed, after which DMSO was added thereto and stirred. When DMSO was completely dissolved, the UV absorbance at 540 nm was measured using a microplate reader (Molecular device, USA).
The measured absorbance was substituted into the following equation to calculate cell viability:
Cell viability (%)=[(O.D. of control−O.D. of test group)/O.D. of control]×100

[2] = MTT (cell viability) test, corticosterone-induced cell death in PC12 cells; assay type: cell-based; conditions: rat
Description: For the experiment shown in FIG. 3, PC12 cells were cultured in DMEM medium (Hyclone, Thermo, USA) containing 10% FBS, 5% horse serum and antibiotics (Gibco-BRL, USA). […] The concentration of corticosterone was determined to be 400 μM after evaluation of cell viability.

SH-SY5Y cells [3] = test: Inhibition of mitochondrial membrane potential (MMP) damage (rhodamine-123); assay type: cell-based, human; conditions: hydrogen peroxide alone, 30 minutes; normal control 99% or less
Description: as §1
In order to measure the inhibition of MMP damage, cells were labeled with rhodamine-123 fluorescence, and quantitative analysis was performed using a fluorescence meter. Specifically, the 6-well plate in which the cells have been cultured was pretreated with sulfuretin for 30 minutes and then reacted with hydrogen peroxide for 30 minutes to induce MMP damage. Then, 10 μl of 10 μM rhodamine-123 was added to each well of the plate and allowed to react for 30 minutes. Herein, rhodamine-123 in the incubator was covered with a silver foil such that it would not be exposed to light. The cells that reacted with the rhodamine-123 fluorescent substance were detached with cold PBS and centrifuged at 400 g for 3 minutes. The centrifugation process was repeated twice to wash the fluorescent substance. The washed cells were stirred briefly with 0.5 ml of PBS, and 100 μl was dispensed into each well of a fresh 96-well plate. The fluorescence of the cells was measured at an excitation wavelength of 480 nm and an emission wavelength of 530 nm using a fluorescence meter (Perkinelmer, USA).
The measured fluorescence was substituted into the following equation to calculate ΔΨm:
ΔΨm(%)=[(O.D. of control−O.D. of test group)/O.D. of control]×100

SH-SY5Y cells [4] = test: Inhibition of intracellular [Ca2+] influx (Fura-2-AM fluorescence); assay type: cell-based, human; conditions: hydrogen peroxide alone, 30 minutes; normal control 281 nM or less
Description: as §1
In order to measure inhibitory effects on intracellular [Ca^2+] influx caused by oxidative stress, cells were labeled with Fura-2-AM fluorescence, and quantitative analysis was carried out using a fluorescence meter. Specifically, 10 μl of 5 μM Fura-2-AM was added to each well of the 6-well plate (in which the cells have been cultured) and then allowed to react for 30 minutes. Herein, Fura-2-AM in the incubator was covered with a silver foil such that it would not be exposed to light. After completion of the incubation, the plate was pretreated with sulfuretin for 30 minutes, and then reacted with hydrogen peroxide for 30 minutes to induce the intracellular influx of [Ca^2+]. Then, the cells that reacted with the Fura-2-AM fluorescent substance were washed twice with cold HEPES and detached with HEPES. Then, the cells were centrifuged at 400 g for 3 minutes. The supernatant was removed carefully, stirred weakly with 0.5 ml of HEPES buffer, and then 150 μl was dispensed into each well of a fresh 96-well plate. The fluorescence of the sample dispensed into the fresh 96-well plate was measured at an excitation wavelength of […] and an emission wavelength of 520 nm using a fluorescence meter (Perkinelmer, USA).
The measured value was substituted into the following equation to calculate intracellular [Ca^2+] nM: […]

phospho-JNK = test: Western blot, phospho-JNK expression; assay type: cell-based, human; conditions: SH-SY5Y cells; hydrogen peroxide alone, 24 hours; normal control 100%
Description: as §1
(§2) In order to identify the effect of sulfuretin on the expression of proteins related to dementia, Alzheimer's disease, Parkinson's disease and strokes, a Western blot test was carried out.
(§3) After 24 hours, the supernatant of each well was collected and centrifuged at 400 g for 3 minutes, and the cells were washed with cold PBS and lysed with 100 μl of T-PER lysis buffer (Thermo, USA) for 30 minutes. The lysates were centrifuged at 10000 g at 4° C. for 15 minutes, and the supernatants were stored at […] until use as test samples. Proteins were quantitatively analyzed using a BCA assay kit (Thermo, USA) and separated within 8.5-12% SDS gel and then transferred to PVDF membranes. To examine the expression of the proteins, the development of fluorescence was analyzed by enhanced chemiluminescence (ECL). Specifically, the membrane was blocked with 5% skimmed non-fat milk for 1 hour and labeled with the primary antibodies, PARP, caspase-3, phospho-p38, phospho-JNK and β-actin at 4° C. overnight. Then, the membrane was washed three times with Tris-tween buffered saline (TTBS), and then labeled with horseradish peroxidase (HRP)-conjugated anti-rabbit and anti-mouse secondary antibodies at room temperature for 1 hour. Then, the membrane was washed five times with TTBS for 10 minutes. The washed film was developed by ECL using x-ray films, and concentrations were quantitatively analyzed using quantitative analysis program (Fujifilm, Japan).

SH-SY5Y cells [5] = test: Inhibition of ROS production (DCFH-DA fluorescence); assay type: cell-based, human; conditions: hydrogen peroxide alone, 30 minutes; control 102% or less
Description: as §1
In order to measure ROS elimination activity, cells were labeled with DCFH-DA fluorescence, and quantitative analysis was performed using a fluorescence meter.
Specifically, the 6-well plate in which the cells have been cultured was pretreated with sulfuretin for 2 hours, and then reacted with hydrogen peroxide for 30 minutes to induce ROS. Then, 10 μl of 10 mM DCFH-DA was added to the plate and allowed to react with the cells for 30 minutes. Herein, DCFH-DA in the incubator was covered with a foil such that it would not be exposed to light. The cells that reacted with the DCFH-DA fluorescent substance were detached using cold PBS and centrifuged at 400 g for 3 minutes. The centrifugation process was repeated twice to wash the fluorescent substance. The washed cells were briefly stirred with 1 ml of PBS, and 100 μl was dispensed into each of a fresh 96-well plate. Then, fluorescence was measured at an excitation wavelength of 488 nm and an emission wavelength of 515 nm using a fluorescence meter (Perkinelmer, USA).
The measured value was substituted into the following equation to calculate ROS production:
ROS production (%)=[(O.D. of control−O.D. of test group)/O.D. of control]×100

PARP = test: Western blot, PARP expression; assay type: cell-based, human; conditions: SH-SY5Y cells; hydrogen peroxide alone, 24 hours; normal control 100%
Description: as §1, §2, §3

caspase-3 = test: Western blot, caspase-3 expression; assay type: cell-based, human; conditions: SH-SY5Y cells; hydrogen peroxide alone, 24 hours; normal control 100%
Description: as §1, §2, §3

SH-SY5Y cells [6] = test: LDH secretion (cytotoxicity) test; assay type: cell-based, human
Description: as §1
To measure LDH secretion (cytotoxicity), an LDH cytotoxicity assay kit was used. 50 μl of the medium was taken from each well of the 96-well plate (in which the cells have been cultured) and dispensed into each well of a fresh 96-well plate, and 50 μl of a reaction reagent was added to each well, after which the plate was shielded from light. The plate was incubated in an incubator for 30 minutes, and the UV absorbance at 490 nm was measured using a microplate reader (Molecular device, USA).
The measured absorbance was substituted into the following equation to calculate LDH secretion:
LDH secretion (%)=(LDH secretion O.D. in medium/total LDH secretion O.D.)×100

phospho-p38 = test: Western blot, phospho-p38 expression; assay type: cell-based, human; conditions: SH-SY5Y cells; hydrogen peroxide alone, 24 hours; normal control 100%
Description: as §1, §2, §3

mice [7] = test: Scopolamine-induced learning and memory deficits, step-through passive avoidance test; assay type: in vivo; conditions: scopolamine 0.5 mg/kg, i.p. (p<0.05)
Description: (§4) Male ICR mice (4-weeks-old, 18-20 g) were purchased from Koatech Co., Ltd. (Pyongtaek, Korea). Mice were housed 10 per cage, allowed access to water and food ad libitum, and maintained in constant temperature (23±1° C.) and humidity (55±5%) conditions under a 12 hour light/dark cycle (lights on 07:00 to 19:00 h). All experiments were conducted in accord with the NIH Guide for the Care and Use of Laboratory Animals and with the approval of the Institutional Animal Care and Use Committee of Sungkyunkwan University.
Assessment of the training or test trials of the passive avoidance test was carried out in identical illuminated and non-illuminated compartments (12×10×12 cm) containing 2-mm stainless steel rods spaced 0.5 cm apart. A 50 W lamp positioned 1 meter above both chambers illuminated the apparatuses. Briefly, the mice underwent two separate trials, a training trial and a test trial 24 hours later. For the training trial, mice were initially placed in the clear chamber. When they entered the dark chamber, the door closed and a 3-sec electrical foot shock (0.5 mA) was delivered through the stainless steel rods. One hour before each training trial, mice were given sulfretin (0.25, 0.5, or 1 mg/kg, p.o.). After 30 minutes, memory impairment was induced by administering scopolamine (0.5 mg/kg, i.p.). Twenty-four hours after the training trial, mice were placed in the illuminated chamber for the test trial. The time for the mouse to enter the dark compartment after the door opening was defined as latency for both training and test trials. Latencies were recorded for up to 300 s. To avoid a ceiling effect in unimpaired animals, sulfuretin alone was administered 1 hour before the training trial without scopolamine treatment. The intensity of electrical foot shock was set at 0.25 mA for 3 seconds. This lower intensity shock allowed for a behavioral window through which to detect any enhancing effect of sulfuretin.

mice [8] = test: Scopolamine-induced cognitive impairment, spontaneous alternation behavior Y-maze test; assay type: in vivo; conditions: scopolamine 0.5 mg/kg, i.p., compared with the control group (p<0.05)
Description: as §4
The spontaneous alternation behavior was measured by Y-maze which consists of a horizontal maze (30 cm long and 5 cm wide, with walls 12 cm high) with three arms (labeled A, B, and C). The maze floor and walls are constructed of dark grey, polyvinyl plastic. Mice were initially placed within one arm, and the number of alternations (i.e., consecutive entry sequences of ABC, CAB, or BCA but not BAB) and the number of arm entries were manually recorded for each mouse over an 8 minutes period. One hour before each test, the mice were given sulfuretin (0.25, 0.5, or 1 mg/kg, p.o.). After 30 minutes, memory impairment was induced by administering scopolamine (0.5 mg/kg, i.p.). […] The percentage alternation was calculated according to the following equation: Percentage alternation=[(Number of alternations)/(Total arm entries−2)]×100. […]

Tau = test: Western blot, amyloid beta25-35-induced hyperphosphorylation of Tau; assay type: cell-based, human; conditions: SH-SY5Y cells; 20 μM amyloid beta25-35 alone, compared with control samples (p<0.05 and p<0.01)
SH-SY5Y cells [9] = test: LDH assay, amyloid beta25-35-induced cytotoxicity; assay type: cell-based, human; conditions: 20 μM amyloid beta25-35 alone for 24 h, versus control cells (p<0.001)

Molecule: NCCc1cc(O)c(O)cc1O [6-hydroxydopamine, reference compound]
- viability at 200 µM [1]: ≥ 69%

Molecule: C[C@]12C[C@H](O)[C@H]3[C@@H](CCC4=CC(=O)CC[C@@]43C)[C@@H]1CC[C@@H]2C(=O)CO [corticosterone, Corticosterone, reference compound]
- viability at 400 µM [2]: ≥ 55%

Molecule: OO [hydrogen peroxide, reference compound]
- MMP (ΔΨm) (SH-SY5Y cells [3]): ≤ 55%
- intracellular [Ca2+] influx (SH-SY5Y cells [4]): ≥ 600 nM
- viability at 400 µM ([1]; cell viability): ≥ 55%
- phospho-JNK expression (phospho-JNK): ≥ 173%
- ROS production (SH-SY5Y cells [5]): ≥ 148%
- PARP expression (PARP): ≤ 38%
- caspase-3 expression (caspase-3): ≤ 40%
- LDH secretion (SH-SY5Y cells [6]; hydrogen peroxide alone, normal control 11% or less): ≥ 80%
- phospho-p38 expression (phospho-p38): ≥ 133%

Molecule: CN1[C@@H]2C[C@@H](OC(=O)[C@H](CO)c3ccccc3)C[C@H]1[C@@H]1O[C@@H]12 [scopolamine, reference compound]
- step-through latency time (test trial) (mice [7]): decreased
- spontaneous alternation behavior (mice [8]): significantly decreased

Molecule: GSNKGAIIGLM [beta-amyloid, amyloid-beta 25-35 fragment, reference compound]
- phosphorylation of Tau proteins (Tau): rapidly increased
- LDH activity (LDH release) (SH-SY5Y cells [9]): increased significantly
- LDH secretion (SH-SY5Y cells [6]; beta-amyloid alone, normal control 12% or less): ≥ 15%
